Measured values: patent publication US7473669B2, “Substituted 4,5-dihydro-1,2,4-triazin-6-ones, 1,2,4-triazin-6-ones, and their use as fungicides” (priority 2005, dated 2009)

What was measured:
Format in all cases: in vivo
Erysiphe cichoracaerum = assay: Cucumber Powdery Mildew greenhouse one-day protectant test; conditions: 24 h, cucumber plants, one-day protectant test, 200 ppm application rate, read-out: ERYSCI percent control rating
Colletotricum lagenarium = assay: Cucumber Anthracnose greenhouse one-day protectant test; conditions: Cucumis sativus, 24 h, cucumber plants, one-day protectant test, 200 ppm application rate; read-out: COLLLA percent control rating
Leptosphaeria nodorum = assay: Glume Blotch of Wheat greenhouse one-day protectant test; conditions: Parastagonospora nodorum, 24 h; wheat plants, one-day protectant test, 200 ppm application rate; read-out: LEPTNO percent control rating
Pyricularia oryzae = assay: whole plant or invertebrate; conditions: 24 h, read-out: PYRIOR percent control rating
[1] = system: Puccinia recondita tritici; assay: Leaf Rust of Wheat greenhouse one-day protectant test; conditions: 24 h, wheat plants, one-day protectant test, 200 ppm application rate, read-out: PUCCRT percent control rating
Phytophthora infestans = assay: whole plant or invertebrate; conditions: in Solanum lycopersicum, 24 h, read-out: PHYTIN percent control rating, tomato plants, one-day protectant test, 200 ppm application rate

| SMILES | pest or weed control at 200 ppm (Erysiphe cichoracaerum) [%] | pest or weed control at 200 ppm (Colletotricum lagenarium) [%] | pest or weed control at 200 ppm (Leptosphaeria nodorum) [%] | pest or weed control at 200 ppm (Pyricularia oryzae) [%] | pest or weed control at 200 ppm [1] [%] | pest or weed control at 200 ppm (Phytophthora infestans) [%] |
| --- | --- | --- | --- | --- | --- | --- |
| CON=C(c1ccccc1)c1cccc(C2=NN(CC(F)(F)F)C(=O)C(SC3CCCCC3)N2)c1 (stereo not drawn) [Compound 56] | 0 to 49 | 0 to 49 | 80 to 100 | 80 to 100 | 50 to 79 | 0 to 49 |
| O=C1CNC(c2cc(Br)cc(-c3ccsc3)c2)=NN1CCc1ccccc1 [Compound 69] | 0 to 49 | 0 to 49 | 50 to 79 | 50 to 79 | 0 to 49 | 0 to 49 |
| COc1ccccc1-c1cccc(C2=NN(CC(F)(F)F)C(=O)C(SC3CCCCC3)N2)c1 (stereo not drawn) [Compound 53] | 0 to 49 | 50 to 79 | 80 to 100 | 80 to 100 | 80 to 100 | 0 to 49 |
| O=C1CNC(c2cc(Cl)cc(Cl)c2)=NN1Cc1c(F)c(F)c(F)c(F)c1F [Compound 65] | 0 to 49 | 80 to 100 | 80 to 100 | 50 to 79 | 0 to 49 | 0 to 49 |
| O=C1CNC(c2cccc(Oc3ccnc(Cl)c3)c2)=NN1CC(F)(F)F [Compound 33] | 0 to 49 | 0 to 49 | 50 to 79 | 0 to 49 | 80 to 100 | 0 to 49 |
| O=c1cnc(-c2ccc(-c3ccc(Cl)s3)nc2)nn1CC(F)(F)F [Compound 88] | 0 to 49 | 0 to 49 | 50 to 79 | 0 to 49 | 0 to 49 | 0 to 49 |
| Cc1cc(C)cc(C2=NN(CC(F)(F)F)C(=O)C(SCCCCl)N2)c1 (stereo not drawn) [Compound 39] | 0 to 49 | 80 to 100 | 80 to 100 | 80 to 100 | 80 to 100 | 0 to 49 |
| O=C1CNC(c2ccc(-c3cc(Cl)cc(Cl)c3)nc2)=NN1CCF [Compound 34] | 0 to 49 | 50 to 79 | 80 to 100 | 80 to 100 | 80 to 100 | 50 to 79 |
| Cc1cc(C)cc(C2=NN(CC(F)(F)F)C(=O)C(SCc3ccccc3)N2)c1 (stereo not drawn) [Compound 36] | 0 to 49 | 80 to 100 | 80 to 100 | 80 to 100 | 80 to 100 | 0 to 49 |
| CCCCN1N=C(c2cc(-c3ccsc3)cc(-c3ccsc3)c2)NCC1=O [Compound 62] | 0 to 49 | 0 to 49 | 80 to 100 | 0 to 49 | 0 to 49 | 0 to 49 |
| O=c1cnc(-c2cccc(C#Cc3ccccc3)c2)nn1CC(F)(F)F [Compound 92] | 0 to 49 | 80 to 100 | 50 to 79 | 80 to 100 | 80 to 100 | 50 to 79 |
| O=c1cnc(-c2cc(Cl)cc(Cl)c2)nn1CCOc1ccccc1 [Compound 87] | 0 to 49 | 0 to 49 | 0 to 49 | 0 to 49 | 0 to 49 | 0 to 49 |
| O=C1C(SC2CCCCC2)NC(c2ccc(Oc3ccccc3)c(-c3ccccc3)c2)=NN1CC(F)(F)F (stereo not drawn) [Compound 45] | 0 to 49 | 50 to 79 | 80 to 100 | 80 to 100 | 50 to 79 | 0 to 49 |
| O=c1cnc(-c2ccc(N3CCOCC3)cc2)nn1CC(F)(F)F [Compound 77] | 50 to 79 | 80 to 100 | 50 to 79 | 80 to 100 | 0 to 49 | 50 to 79 |
| O=C1CNC(c2ccc(Cl)c(Cl)c2)=NN1C(=O)C(F)(F)F [Compound 10] | 0 to 49 | 50 to 79 | 50 to 79 | 80 to 100 | 0 to 49 | 0 to 49 |
| Cc1cc(C)cc(C2=NN(Cc3ccccn3)C(=O)CN2)c1 [Compound 5] | 0 to 49 | 50 to 79 | 80 to 100 | 0 to 49 | 0 to 49 | 0 to 49 |
| O=C1CNC(c2ccc(N3CCOCC3)cc2)=NN1CC(F)(F)F [Compound 58] | 50 to 79 | 0 to 49 | 0 to 49 | 80 to 100 | 0 to 49 | 0 to 49 |
| O=C1CNC(c2ccc(Oc3cccnc3)cc2)=NN1CC(F)(F)F [Compound 59] | 0 to 49 | 0 to 49 | 50 to 79 | 50 to 79 | 80 to 100 | 50 to 79 |
| CNc1cc(F)nc(Oc2cccc(C3=NN(CC(F)(F)F)C(=O)CN3)c2)n1 [Compound 32] | 0 to 49 | 0 to 49 | 80 to 100 | 0 to 49 | 50 to 79 | 0 to 49 |
| CS(=O)(=O)OCCN1N=C(c2ccc(Cl)nc2)NCC1=O [Compound 1] | 0 to 49 | 0 to 49 | 0 to 49 | 50 to 79 | 0 to 49 | 0 to 49 |
| O=C1CNC(c2cccc(-c3ccc(Oc4ccccc4)cc3)c2)=NN1CC(F)(F)F [Compound 30] | 0 to 49 | 0 to 49 | 50 to 79 | 0 to 49 | 50 to 79 | 0 to 49 |
| Cc1ccccc1-c1cccc(C2=NN(CC(F)(F)F)C(=O)C(SC3CCCCC3)N2)c1 (stereo not drawn) [Compound 51] | 0 to 49 | 50 to 79 | 80 to 100 | 80 to 100 | 80 to 100 | 0 to 49 |
| O=C1CNC(c2cccc(OS(=O)(=O)C(F)(F)F)c2)=NN1CC(F)(F)F [Compound 23] | 0 to 49 | 0 to 49 | 50 to 79 | 80 to 100 | 50 to 79 | 0 to 49 |
| O=C1CNC(c2cccc(OCc3ccccc3)c2)=NN1CCF [Compound 19] | 0 to 49 | 0 to 49 | 50 to 79 | 50 to 79 | 80 to 100 | 0 to 49 |
